Data set [1] has as its system heat nociceptive stimulation. Briefly: Anti-nociceptive activity test, tail-flick method. It counts as in vivo, mouse. Conditions: for ED50: Mus musculus, at activity-peak time, parentheses = 95% confidence limit. The method, then:
(1) Experimental animal, male ddy mice (Japan SLC), weighing the body weight in the range of 22 to 25 g, were used for the studies. The animals had been kept under constant conditions (room temperature 22±2° C., humidity 55±5%, 12 hours light-and-dark cycle having light time 9:00 to 21:00 and dark time 21:00 to 9:00) until used for an experiment. The animals were fed the mouse solid diet (F2, Funabashi farm. Funabashi, Japan) with unrestricted tap water intake.
SS8225-01, 02, 03 04, 05, 06, 07 and 08 as examples and SS8225-09, 10, 11 and 12 as comparison examples were used as the administered drugs. […] In addition only Liger solution was administered as an experimental control. The animals were left for 60 minutes in the plastic cage to become familiar to the environment prior to the test in which measured a latent time for each mouse before drug administration in accordance with a tail-flick method noted below. Heat was radiated to a part of each mouse tail which is 2 cm from the end of its tail. Each of heat radiation periods before beginning of tail-flick was measured as a false pain threshold. Mice which responded to the stimulation within 2.5 to 3.5 seconds were pre-selected for the test. Administration solution under one administration condition for one kind of drug was administered to one experimental animal group including 10 mice. After the body weight of each mouse was measured, each volume of the administration solution was adjusted to be 0.1 mL/10 g of mouse body weight and then the solution was administered. The administration methods were two methods of subcutaneous administration (s. c.) and oral administration (p. o.). On subcutaneous administration, the administration solution of 0.1 mL per 10 g of body weight (0.1 mL/10 g) was injected into the back of the mouse using 27 gauge needle. On oral administration, the administration solution of 0.1 mL per 10 g of body weight (0.1 mL/10 g) was administered using an oral sonde.
Heat was radiated to a part of each mouse's tail of respective experimental group, which is 2 cm from the end of its tail, at 15, 30 and 60 minutes after the drug administration according to the preset measurement interval and a latent time until respective mouse swung its tail was measured as a false pain threshold value. The maximum stimulation period (cut-off-time) was set as 10 seconds to minimize the damage to the stimulation part. The anti-nociceptive effect was evaluated quantitatively by calculating % MPE (% of maximum possible effect) according to the following formula. [formula] T1: A latent time until beginning of tail-flick before respective drug administration (seconds) T2: A latent time until beginning of tail-flick after respective drug administration (seconds) Tc: A maximum stimulation period (cut-off-time)
The graphs (FIG. 1, FIG. 3, FIG. 5, FIG. 7, FIG. 9, FIG. 11, FIG. 13, FIG. 15, FIG. 17, FIG. 19, FIG. 21, FIG. 23, FIG. 25, FIG. 27, FIG. 29, FIG. 31, FIG. 33 and FIG. 35) showing a time-course variation of % MPE were created, in which a vertical axis is an average value with a standard error (means ±S. E. M.) obtained by calculation of % MPE of respective animals of 10 mice every administration condition of respective drugs and a horizontal axis is a time after administration. After treating % MPE data of each animal of experimental groups with respective doses and % MPE data of each animal of the experimental group with a control Ringer's solution at the same measurement time every drugs using the two-way layout dispersion analysis (two-way ANOVA), the hazard-ratio of P<0.05 was decided to be a significant difference according to Bonferroni post-test.
A lasting time of anti-nociceptive activity of each drug in the present description is the lasting time of anti-nociceptive activity under the dose condition providing the longest lasting time.
ED50 is represented in the unit of mg/Kg.
(In hot-plate and tail-flick tests a longer latency is read as antinociception.)

Data set [2] has as its system MSU induced knee osteoarthritis pain. Briefly: MSU induced knee osteoarthritis pain model, hind leg paw-pressure ratio. Conditions: rat, MSU knee model; for ED50: range in parentheses. Set-up: key to AUC of time-course variation of anti-nociceptive activity: AUC of the time course of anti-nociceptive activity as % MPE. It counts as in vivo, rat. The method, then:
Experimental animal, male SD type rats, weighing the body weight in the range of 170 to 190 g, were used for the studies. The animals had been kept under constant conditions (room temperature 23±1° C., humidity 52±2%, 12 hours light-and-dark cycle having light time 7:00 to 19:00 and dark time 19:00 to 7:00) until used for an experiment. The animals were fed the mouse solid diet (F2, Funabashi farm. Funabashi, Japan) with unrestricted tap water intake, and kept in captivity for at least more than two days in a laboratory.
Any test drugs were dissolved in Ringer's solution (Fuso Yakuhin) to be used.
MSU was suspended with the suspension solution (10% of polyoxyethylene sorbitan mono-oleate (Tween 80: Nakarai Tesk) as 0.1 g per 1 mL. The animal was anesthetized with diethyl ether and after the surface of its left hind leg knee joint was wiped with 70% ethanol cotton, a porous administration of the suspension solution above noted was conducted into the cavity of let hind leg knee joint.
Pressures to both hind leg paw were measured using a paw-pressure measurement apparatus and recorded. Measurement time at respective times was 4.5 seconds. Calculated paw-pressure ratio (ppr) is a value calculated by dividing the pressure on the left hind leg by the pressure on the right hind leg according to the measured pressures on both hind legs.
The anti-nociceptive effect was evaluated quantitatively by calculating % MPE (% of maximum possible effect) according to the following formula. [formula]
In the formula, ppr 0 and ppr 1 are respective paw-pressure ratios on both hind legs before and after administration. ED50 value of anti-nociceptive activity was calculated using GraphPad Prism data-graph processing software version 4.0, San Diego, Calif., USA.
The strength of anti-nociceptive activity was represented by calculating the time-course variation of anti-nociceptive activity AUC using GraphPad Prism noted above.
Paw-pressure was measured twice at 4 hours after administration to provide ppr by calculation and the average of those values was both hind leg paw-pressure ratio before the drug administration. After the measurement of both hind leg paw-pressure before the drug administration, 0.1 mL of Ringer's solution or a test drug in Ringer's solution per 100 g rat body weight was orally administered, and then a paw-pressure was measured once every unit time after the oral administration.
Statistical processing was conducted using GraphPad Prism. After the two-way layout dispersion analysis, the hazard-ratio of P<0.05 was decided to be a significant difference according to Bonferroni post-test. The hazard-ratios were distinguished into less than 5% (P<0.05) and less than 1% (P<0.01) and represented as “*” and “**” in the same manner conducted for the Tail-flick method.

For the next data set, the system named is male ddy mouse. Briefly: Evaluation of acute toxicity. As to conditions: s.c.; for Number of mice died (out of five): within 72 to 96 hours. On the procedure:
Mice weighing in the range of 22 to 25 g, male ddy mouse, were employed. Number of mice out of five mice in each group that died within 72 to 96 hours recorded.

The conditions of data set [3]: non-patent references 2-7, cited from earlier work.

Like-named read-outs stand apart in the source and are kept apart here. Non-standard residues stand in square brackets, D forms with d. No end group written: not given here. βAla = NCCC(=O)O

With `COc1ccc2c3c1O[C@H]1C(=O)CC[C@@]4(O)[C@@H](C2)N(C)CC[C@]314` [Oxycodone], the ED50 – broadly, the midpoint of the dose-response relation – in data set [1] (po, mice, p.o., read-out: Oral ED50) is 7.82 mg/kg; in data set [1] (sc, mice, s.c., read-out: Subcutaneous ED50), 1.21 mg/kg; in data set [2] (oral, %MPE, read-out: ED50 value at activity peak), 10.3 mg/kg; in data set [2] (oral, read-out: ED50 of AUCs), 49.4 mg/kg. Besides, in data set [1] (mice, p.o.), the “activity-peak time after the oral administration” value stood at 45 min. For the same compound, the “activity-peak time after the subcutaneous administration” value in data set [1] (mice, s.c.) was determined as 30 min. Further, the “lasting time of anti-nociceptive activity” value in data set [1] (p.o., dose of 20 mg/Kg) is 5 h; in data set [1] (s.c., dose of 1.75 mg/Kg), 1.5 h. The “activity lasting-time, times longer than for morphine” value in data set [2] (oral) turned out to be 0.4 times. Also, the activity peak in data set [2] (oral) amounted to 60 min. The “AUC of time-course variation of anti-nociceptive activity” value in data set [2] (oral 7.5 mg/kg) was 2525; in data set [2] (oral 15 mg/kg), 6363; in data set [2] (oral 30 mg/kg), 10562. In data set [2] (oral, from ED50 of AUCs), the “anti-nociceptive activities, times stronger than for morphine” value is listed as “approximately 1.8 times”. In addition, the “anti-nociceptive activity lasting-times, times longer than for morphine” value in data set [2] (oral, stated after ED50 at activity peak) worked out at 3.6 times. The activity lasting-time in data set [2] (orally administered) came out at 120 min.

Regarding `CC(=N)N[C@@H](Cc1ccc(O)cc1)C(=O)N[C@H](CC[S+](C)[O-])C(=O)N[C@@H](Cc1ccccc1)C(=O)N(C)CCC(N)=O` (stereo partly drawn) [SS8225-04, Iminoethyl-[Tyr]-[D-Met(O)]-[Phe]-[N-MeβAla]-NH2], the “Lethality (%)” value in the data set on male ddy mouse (dosage 6.25 mg/Kg (125 times the ED50)) was found to be 0%; in the data set on male ddy mouse (dosage 25 mg/Kg (500 times the ED50)), 0%; in the data set with male ddy mouse (dosage 50 mg/Kg (1000 times the ED50)), 20%; in the data set on male ddy mouse (dosage 100 mg/Kg (2000 times the ED50)), 20%. In addition, the “Number of mice died (out of five)” value is reported as 0 with male ddy mouse (dosage 6.25 mg/Kg), 0 in the data set with male ddy mouse (dosage 25 mg/Kg), 1 in the data set with male ddy mouse (dosage 50 mg/Kg) and 1 in the data set on male ddy mouse (dosage 100 mg/Kg). Besides, the acute toxicity entry in the data set with male ddy mouse (mice) was “satisfactorily low”.

Turning to “Nα-amidine-[Tyr]-[D-Arg]-[Phe]-[N-Methyl-β-Ala]-OH [ADAMB]”, in data set [3], the “anti-nociceptive activity compared with morphine on oral administration” value is on record as “about 3.8 times” and the “anti-nociceptive activity compared with morphine on subcutaneous administration” value is listed as “about 23 times”.

Turning to Y[dR]F[βAla] [TAPA], in data set [3], the “anti-nociceptive activity compared with morphine on oral administration” value is “almost equal” and the “anti-nociceptive activity compared with morphine on subcutaneous administration” value was “nine times stronger”.

The values are drawn from US20080009448A1, “Peptide Derivative” (priority 2006, published 2008).
